Legend:
NRF2/Keap1 = target: T1, NRF2/Keap1 (Homo sapiens, UniProt Q14145); assay: NRF2-Keap1 TR-FRET Low Protein Assay (full length NRF2 and full length Keap1); format: binding; details: low protein: 1.25 nM Keap1 FlagHis, 2.5 nM biotin-NRF2 added
T1 construct: full length NRF2 protein and full length Keap1 protein (Keap1 exists a dimer) are used
Source text: In the NRF2-Keap1 TR-FRET (time-resolved fluorescence resonance energy transfer) low protein assay, full length NRF2 protein and full length Keap1 protein (Keap1 exists a dimer) are used. The assay detects a compound's ability to displace the binding of Keap1 FlagHis with biotinylated Avi-NRF2 protein. Biotin-NRF2 binds to streptavidin-europium (a component of the detection mix) and Keap1 FlagHis is recognized by anti-Flag APC (allophycocyanin) antibody (also a component of the detection mix). If binding occurs between the two proteins, there will be an energy transfer from the Eu+3 (donor) at 615 nm to the APC (acceptor) at 665 nm. A potential NRF2 inhibitor will cause a reduction in the TR-FRET signal by interfering with the binding of Keap1 to NRF2.
Ten nanoliters of 100× compound dose response curves (serial 3-fold dilutions) in DMSO are stamped using an Echo liquid handling system (Labcyte) into 384-well, low volume, black assay plates (Greiner, #784076), with DMSO in columns 6 and 18. An additional 90 nl DMSO is added to each well, to bring the total volume to 100 nl per well. The top concentration of compound is located in columns 1 and 13, with the serial dilutions going across the row. All reagents are diluted in assay buffer (50 mM Tris, pH 8.0, 5 mM MgCl2, 100 mM NaCl, 0.005% BSA, 1 mM DTT, and 2 mM CHAPS. The BSA, DTT, and CHAPS are added to the assay buffer on the day of assay. Using a Multidrop Combi (Thermo Electron Corporation) equipped with a metal tip dispenser, 5 ul of 1.25 nM Keap1 FlagHis protein is added to all wells of the compound plate, with the exception of the wells in column 18. Wells in column 18 receive 5 ul of assay buffer instead. Plates are centrifuged at 500 rpm for 1 minute, covered with a plate lid, and incubated at 37° C. for 2.25 hours. Plates are then removed from the incubator and allowed to cool to RT for 15 minutes. Five microliters of 2.5 nM biotin-NRF2 protein is then added to all wells of the plates and the plates are spun at 500 rpm for 1 minute, followed by incubating at 4° C. for 1.25 hours. The plates are then allowed to warm to RT for 15 minutes, followed by the addition of 10 ul of detection mix (1 nM Streptavidin Eu+ W1024 and 5 ug/ml mouse anti-DYKDDDDK IgG conjugated to SureLight APC antibody; both from Columbia Biosciences) to all wells. Plates are spun at 500 rpm for 1 minute, incubated for 1 hour at RT, and read on an Envision plate reader using a 320 nm excitation filter and 615 nm and 665 nm emission filters. Compound response (% inhibition) and potency (pIC50) are calculated based on the ratio of the two emissions (665 nm/615 nm) and then the transformed data is normalized against controls in the assay (control 1=1% DMSO in the presence of NRF2 and Keap1 protein and control 2=1% DMSO in the presence of only the NRF2 protein). Data analysis is handled using the software package Abase XE (Surrey, United Kingdom). The % inhibition values are calculated from the ratio (transformed) data by the equation: 100−(100*(compound response-average control 2)/(average control 1−average control 2)). For calculation of pIC50s, Abase XE uses a four parameter equation.

[1] = test system: NQO1 specific enzyme activity in BEAS-2B cells; assay: BEAS-2B NQO1 MTT Assay; format: cell-based; details: NQO1 specific activity induction
How it was run: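 BEAS-2B cells exposed to compound for 48 h at 37 °C, 5% CO2, then lysed. NQO1 activity in crude lysate read kinetically by MTT cocktail absorbance at 570 nm over 30 min. pEC50 from ΔOD/min versus log concentration, 3-parameter fit.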

T1 sequence (Q14145 whole entry): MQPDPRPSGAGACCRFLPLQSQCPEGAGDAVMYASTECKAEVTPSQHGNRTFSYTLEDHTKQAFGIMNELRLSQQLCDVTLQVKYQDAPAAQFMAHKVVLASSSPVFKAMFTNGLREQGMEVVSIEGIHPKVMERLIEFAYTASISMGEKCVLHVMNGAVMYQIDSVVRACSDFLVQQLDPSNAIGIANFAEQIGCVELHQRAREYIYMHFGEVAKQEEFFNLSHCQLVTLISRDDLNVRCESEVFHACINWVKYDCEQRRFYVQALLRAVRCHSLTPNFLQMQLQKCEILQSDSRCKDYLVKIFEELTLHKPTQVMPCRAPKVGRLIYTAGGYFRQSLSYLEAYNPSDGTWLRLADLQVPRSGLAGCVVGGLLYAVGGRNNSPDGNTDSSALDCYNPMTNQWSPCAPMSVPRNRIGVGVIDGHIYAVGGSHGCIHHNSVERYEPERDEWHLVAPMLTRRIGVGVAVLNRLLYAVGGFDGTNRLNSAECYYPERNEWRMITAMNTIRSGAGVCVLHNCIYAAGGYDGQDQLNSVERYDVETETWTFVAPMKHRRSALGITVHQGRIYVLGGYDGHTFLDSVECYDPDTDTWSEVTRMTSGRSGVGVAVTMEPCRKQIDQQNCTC

SMILES | IC50 (NRF2/Keap1) [µM] | EC50 ([1]; Homo sapiens, BEAS-2B, 48 h) [µM] | EC50 ([1]; 48 hours) [µM]
O=C(O)c1cnn(-c2cccc(C3=CC(C(=O)N4CCCCCC4)CCC3)c2)c1C1CC1 (stereo not drawn) [Example 19, 1-(5′-(Azepane-1-carbonyl)-2′,3′,4′,5′-tetrahydro-[1,1′-biphenyl]-3-yl)-5-cyclopropyl-1H-pyrazole-4-carboxylic Acid] | 0.1 to 1 | 1 to 10 | 
CCCCC1CCCC1N(C)C(=O)C1CCCC(c2cccc(-n3ncc(C(=O)O)c3C3CC3)c2)C1 (stereo not drawn) [Example 41, 1-(3-(3-((2-Butylcyclopentyl)(methyl)carbamoyl)cyclohexyl)phenyl)-5-cyclopropyl-1H-pyrazole-4-carboxylic Acid] | 0.1 to 1 | 0.1 to 1 | 
O=C(O)c1cnn(-c2cccc(C3CCCC(C(=O)N4CCCC4C4CC4)C3)c2)c1C1CC1 (racemic) [Example 12, 5-cyclopropyl-1-{3-[3-(2-cyclopropylpyrrolidine-1-carbonyl)cyclohexyl]phenyl}-1H-pyrazole-4-carboxylic Acid] | 0.01 to 0.1 | 0.1 to 1 | 
CCCCC1CCCN1C(=O)C1CCCC(c2cccc(-n3ncc(C(=O)O)c3C3CC3)c2)C1 (racemic) [Example 8c, 1-{3-[3-(2-Butylpyrrolidine-1-carbonyl)cyclohexyl]phenyl}-5-cyclopropyl-1H-pyrazole-4-carboxylic Acid] | 0.01 to 0.1 | 0.1 to 1 | 
CCCCC1CCc2cnn([C@@H]3CCC[C@@H](c4cccc(-n5ncc(C(=O)O)c5C5CC5)c4)C3)c21 (stereo partly drawn) [Example 38, 1-(3-((1,3-trans)-3-(6-Butyl-5,6-dihydrocyclopenta[c]pyrazol-1(4H)-yl)cyclohexyl)phenyl)-5-cyclopropyl-1H-pyrazole-4-carboxylic Acid] | 10 to 100 |  | 0.1 to 1
CC1(C)CCc2cnn([C@@H]3CCC[C@@H](c4cccc(-n5ncc(C(=O)O)c5C5CC5)c4)C3)c21 (racemic) [Example 23, 5-Cyclopropyl-1-(3-(t-3-(6,6-dimethyl-5,6-dihydrocyclopenta[c]pyrazol-1(4H)-yl)cyclohexyl)phenyl)-1H-pyrazole-4-carboxylic Acid] | 1 to 10 | 0.1 to 1 | 

Now from value to molecule, other results behind:

IC50 (NRF2/Keap1) [µM] | SMILES | EC50 ([1]; Homo sapiens, BEAS-2B, 48 h) [µM] | EC50 ([1]; 48 hours) [µM]
0.01 to 0.1 | CC(C)CCC1CCCN1C(=O)C1CCCC(c2cccc(-n3ncc(C(=O)O)c3C3CC3)c2)C1 (racemic) [Example 11, 5-Cyclopropyl-1-(3-{3-[2-(3-methylbutyl)pyrrolidine-1-carbonyl]cyclohexyl}phenyl)-1H-pyrazole-4-carboxylic Acid] | 0.1 to 1 | 
0.01 to 0.1 | Cn1cc(C2CC2c2c(C(=O)O)cnn2-c2cccc([C@H]3CCC[C@H](n4ncc5c4C(C)(C)CC5)C3)c2)nn1 (stereo partly drawn) [Example 40, 1-(3-((1,3-trans)-3-(6,6-Dimethyl-5,6-dihydrocyclopenta[c]pyrazol-1(4H)-yl)cyclohexyl)phenyl)-5-(2-(1-methyl-1H-1,2,3-triazol-4-yl)cyclopropyl)-1H-pyrazole-4-carboxylic Acid] | 1 to 10 | 
< 0.01 | CCCC[C@@H]1CCCN1C(=O)[C@H]1CCC[C@@H](c2cccc(-n3ncc(C(=O)O)c3C3CC3)c2)C1 [Example 17f, 1-{3-[(1R,3S)-3-[(2R)-2-Butylpyrrolidine-1-carbonyl]cyclohexyl]phenyl}-5-cyclopropyl-1H-pyrazole-4-carboxylic Acid] | 0.01 to 0.1 | 
< 0.01 | CCOC[C@@H]1CCCN1C(=O)C1CCCC(c2cccc(-n3ncc(C(=O)O)c3C3CC3)c2)C1 (single isomer, unassigned) [Example 18g] |  | 0.1 to 1
< 0.01 | CCCCC1CCCN1C(=O)C1CCCC(c2cccc(-n3ncc(C(=O)O)c3C3CC3c3cn(C)nn3)c2)C1 (stereo not drawn) [Example 42, 1-(3-(3-(2-Butylpyrrolidine-1-carbonyl)cyclohexyl)phenyl)-5-(2-(1-methyl-1H-1,2,3-triazol-4-yl)cyclopropyl)-1H-pyrazole-4-carboxylic Acid] | 1 to 10 | 
< 0.01 | Cn1cc(C2CC2c2c(C(=O)O)cnn2-c2cccc([C@@H]3CCC[C@H](n4ncc5c4C(C)(C)CC5)C3)c2)nn1 (stereo partly drawn) [Example 39, 1-(3-((1R,3S)-3-(6,6-Dimethyl-5,6-dihydrocyclopenta[c]pyrazol-1(4H)-yl)cyclohexyl)phenyl)-5-(2-(1-methyl-1H-1,2,3-triazol-4-yl)cyclopropyl)-1H-pyrazole-4-carboxylic Acid] | 0.1 to 1 | 

Source: patent publication US10351530B2, “Arylcyclohexyl pyrazoles as NRF2 regulators” (GlaxoSmithKline Intellectual Property Development Limited, priority 2015, dated 2019)
